Assay results reported in the supplement of paper PMC9663587.

Key:
MCF7 = experiment: GRmax, 72 h; higher = less effect;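 note: breast cell lines in 384-well plates, nine doses across a 10^4 range, Dye Drop imaging of viable cells vs DMSO and time-zero plates, GR 0 means no net growth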
SUM149 = experiment: GRmax, 72 h; higher = less effect;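 note: breast cell lines in 384-well plates, nine doses across a 10^4 range, Dye Drop imaging of viable cells vs DMSO and time-zero plates, GR 0 means no net growth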
MDAMB453 = experiment: GRmax, 72 h; higher = less effect;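 note: breast cell lines in 384-well plates, nine doses across a 10^4 range, Dye Drop imaging of viable cells vs DMSO and time-zero plates, GR 0 means no net growth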
MDAMB231 = experiment: GRmax, 72 h; higher = less effect;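 note: breast cell lines in 384-well plates, nine doses across a 10^4 range, Dye Drop imaging of viable cells vs DMSO and time-zero plates, GR 0 means no net growth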
PDXHCI002 = experiment: GRmax, 72 h; higher = less effect
MDAMB415 = experiment: GRmax, 72 h; higher = less effect
HCC1500 = experiment: area over the GR curve, 72 h; higher = more effect;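 note: Dye Drop or Deep Dye Drop imaging of viable cells in 384-well plates (Hoechst nuclei, LIVE/DEAD dye), nine half-log doses, GR normalized to DMSO controls and time-zero plates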
MDAMB157 = experiment: area over the GR curve, 72 h; higher = more effect;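 note: Dye Drop or Deep Dye Drop imaging of viable cells in 384-well plates (Hoechst nuclei, LIVE/DEAD dye), nine half-log doses, GR normalized to DMSO controls and time-zero plates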
HCC1428 = experiment: area over the GR curve, 72 h; higher = more effect;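 note: Dye Drop or Deep Dye Drop imaging of viable cells in 384-well plates (Hoechst nuclei, LIVE/DEAD dye), nine half-log doses, GR normalized to DMSO controls and time-zero plates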

CC(=O)Nc1cccc(-n2c(=O)n(C3CC3)c(=O)c3c(Nc4ccc(I)cc4F)n(C)c(=O)c(C)c32)c1 (max 1 µM)
GRmax, 72 h (MCF7): 0.558 GR
GRmax, 72 h (SUM149): 0.237 GR
GRmax, 72 h (MDAMB453): 0.0489 GR
GRmax, 72 h (MDAMB231): -0.178 GR
GRmax, 72 h (PDXHCI002): 0.642 GR
GRmax, 72 h (MDAMB415): 0.285 GR
area over the GR curve (HCC1500): 0.212 GR
area over the GR curve (MDAMB157): 0.301 GR
area over the GR curve (HCC1428): 0.0695 GR

CCc1cnn2c(NCc3ccc[n+]([O-])c3)cc(N3CCCC[C@H]3CCO)nc12 (max 1 µM)
GRmax, 72 h (MCF7): -0.249 GR
GRmax, 72 h (SUM149): -0.566 GR
GRmax, 72 h (MDAMB453): -0.257 GR
GRmax, 72 h (MDAMB231): -0.42 GR
GRmax, 72 h (PDXHCI002): -0.361 GR
GRmax, 72 h (MDAMB415): -0.488 GR
area over the GR curve (HCC1500): 0.662 GR
area over the GR curve (MDAMB157): 0.765 GR
area over the GR curve (HCC1428): 0.656 GR

CC(=O)c1c(C)c2cnc(Nc3ccc(N4CCNCC4)cn3)nc2n(C2CCCC2)c1=O (max 3.162 µM)
GRmax, 72 h (MCF7): 0.254 GR
GRmax, 72 h (SUM149): 0.485 GR
GRmax, 72 h (MDAMB453): 0.0416 GR
GRmax, 72 h (MDAMB231): 0.206 GR
GRmax, 72 h (PDXHCI002): 0.277 GR
GRmax, 72 h (MDAMB415): 0.117 GR
area over the GR curve (HCC1500): 0.11 GR
area over the GR curve (MDAMB157): -0.0037 GR
area over the GR curve (HCC1428): 0.314 GR

CCc1cncnc1N1CCN(Cc2nc3ccc(C(F)(F)F)cc3[nH]2)CC1 (max 10 µM)
GRmax, 72 h (MCF7): 0.558 GR
GRmax, 72 h (SUM149): 0.746 GR
GRmax, 72 h (MDAMB453): 0.0482 GR
GRmax, 72 h (MDAMB231): 0.854 GR
GRmax, 72 h (PDXHCI002): 0.873 GR
GRmax, 72 h (MDAMB415): 0.431 GR
area over the GR curve (HCC1500): 0.182 GR
area over the GR curve (MDAMB157): 0.119 GR
area over the GR curve (HCC1428): -0.0224 GR

CCN1CCN(Cc2ccc(Nc3ncc(F)c(-c4cc(F)c5nc(C)n(C(C)C)c5c4)n3)nc2)CC1 (max 10 µM)
GRmax, 72 h (MCF7): -0.268 GR
GRmax, 72 h (SUM149): 0.0962 GR
GRmax, 72 h (MDAMB453): -0.765 GR
GRmax, 72 h (MDAMB231): -0.487 GR
GRmax, 72 h (PDXHCI002): -0.677 GR
GRmax, 72 h (MDAMB415): -0.0085 GR
area over the GR curve (HCC1500): 0.342 GR
area over the GR curve (MDAMB157): 0.266 GR
area over the GR curve (HCC1428): 0.636 GR

Cc1nn(C)c(COc2ccc(N3CCN(S(=O)(=O)N(C)C)CC3)cc2)c1-c1cccc2c(CCCOc3cccc4ccccc34)c(C(=O)O)n(CCN3CCOCC3)c12 (max 10 µM)
GRmax, 72 h (MCF7): 0.877 GR
GRmax, 72 h (SUM149): 0.391 GR
GRmax, 72 h (MDAMB453): 0.933 GR
GRmax, 72 h (MDAMB231): 0.957 GR
GRmax, 72 h (PDXHCI002): 0.981 GR
GRmax, 72 h (MDAMB415): 0.881 GR
area over the GR curve (HCC1500): -0.063 GR
area over the GR curve (MDAMB157): 0.0057 GR
area over the GR curve (HCC1428): -0.0325 GR

CN(C)CC[C@H](CSc1ccccc1)Nc1ccc(S(=O)(=O)NC(=O)c2ccc(N3CCN(Cc4ccccc4-c4ccc(Cl)cc4)CC3)cc2)cc1[N+](=O)[O-] [ABT-737] (max 10 µM)
GRmax, 72 h (MCF7): 0.727 GR
GRmax, 72 h (SUM149): -0.28 GR
GRmax, 72 h (MDAMB453): 0.152 GR
GRmax, 72 h (MDAMB231): -0.12 GR
GRmax, 72 h (PDXHCI002): 0.146 GR
GRmax, 72 h (MDAMB415): 0.352 GR
area over the GR curve (HCC1500): 1.13 GR
area over the GR curve (MDAMB157): 0.0446 GR
area over the GR curve (HCC1428): 0.111 GR

NC(=O)Nc1cc(-c2cccc(F)c2)sc1C(=O)N[C@H]1CCCNC1 [AZD7762] (max 10 µM)
GRmax, 72 h (MCF7): -0.186 GR
GRmax, 72 h (SUM149): -0.477 GR
GRmax, 72 h (MDAMB453): -0.216 GR
GRmax, 72 h (MDAMB231): -0.463 GR
GRmax, 72 h (PDXHCI002): -0.582 GR
GRmax, 72 h (MDAMB415): -0.481 GR
area over the GR curve (HCC1500): 0.614 GR
area over the GR curve (MDAMB157): 0.984 GR
area over the GR curve (HCC1428): 0.323 GR

Cc1nc(NC(=O)N2CCC[C@H]2C(N)=O)sc1-c1ccnc(C(C)(C)C(F)(F)F)c1 [Alpelisib/BYL719] (max 10 µM)
GRmax, 72 h (MCF7): 0.0207 GR
GRmax, 72 h (SUM149): 0.848 GR
GRmax, 72 h (MDAMB453): -0.307 GR
GRmax, 72 h (MDAMB231): 0.69 GR
GRmax, 72 h (PDXHCI002): 0.63 GR
GRmax, 72 h (MDAMB415): 0.613 GR
area over the GR curve (HCC1500): -0.0097 GR
area over the GR curve (MDAMB157): 0.101 GR
area over the GR curve (HCC1428): 0.0107 GR

Cc1c(N)nc([C@H](CC(N)=O)NC[C@H](N)C(N)=O)nc1C(=O)N[C@H](C(=O)N[C@H](C)[C@@H](O)[C@H](C)C(=O)N[C@H](C(=O)NCCc1nc(-c2nc(C(=O)NCCC[S+](C)C)cs2)cs1)[C@@H](C)O)[C@@H](OC1OC(CO)C(O)C(O)C1OC1OC(CO)C(O)C(OC(N)=O)C1O)c1cnc[nH]1 (stereo partly specified) [Bleomycin] (max 10 µM)
GRmax, 72 h (MCF7; main component drawn): -0.0459 GR
GRmax, 72 h (SUM149; main component drawn): -0.315 GR
GRmax, 72 h (MDAMB453; main component drawn): 0.0154 GR
GRmax, 72 h (MDAMB231; main component drawn): 0.436 GR
GRmax, 72 h (PDXHCI002; main component drawn): -0.12 GR
area over the GR curve (HCC1500; main component drawn): 0.147 GR
area over the GR curve (MDAMB157; main component drawn): 0.281 GR
area over the GR curve (HCC1428; main component drawn): 0.178 GR

Nc1cc(C(F)(F)F)c(-c2cc(N3CCOCC3)nc(N3CCOCC3)n2)cn1 [Buparlisib/NVP-BKM120] (max 10 µM)
GRmax, 72 h (MCF7): -0.269 GR
GRmax, 72 h (SUM149): -0.331 GR
GRmax, 72 h (MDAMB453): -0.607 GR
GRmax, 72 h (MDAMB231): -0.235 GR
GRmax, 72 h (PDXHCI002): -0.48 GR
GRmax, 72 h (MDAMB415): -0.515 GR
area over the GR curve (HCC1500): 0.512 GR
area over the GR curve (MDAMB157): 0.302 GR
area over the GR curve (HCC1428): 0.344 GR

COc1cc2nccc(Oc3ccc(NC(=O)C4(C(=O)Nc5ccc(F)cc5)CC4)cc3)c2cc1OC [Cabozantinib] (max 10 µM)
GRmax, 72 h (MCF7): -0.0993 GR
GRmax, 72 h (SUM149): 0.3 GR
GRmax, 72 h (MDAMB453): 0.465 GR
GRmax, 72 h (MDAMB231): 0.0749 GR
GRmax, 72 h (PDXHCI002): 0.234 GR
GRmax, 72 h (MDAMB415): 0.412 GR
area over the GR curve (HCC1500): -0.0192 GR
area over the GR curve (MDAMB157): 0.21 GR
area over the GR curve (HCC1428): 0.0108 GR

COc1cc2c(Oc3ccc4[nH]c(C)cc4c3F)ncnc2cc1OCCCN1CCCC1 [Cediranib/AZD2171] (max 10 µM)
GRmax, 72 h (MCF7): 0.115 GR
GRmax, 72 h (SUM149): 0.0682 GR
GRmax, 72 h (MDAMB453): -0.689 GR
GRmax, 72 h (MDAMB231): -0.362 GR
GRmax, 72 h (PDXHCI002): -0.432 GR
GRmax, 72 h (MDAMB415): -0.208 GR
area over the GR curve (HCC1500): 0.0909 GR
area over the GR curve (MDAMB157): 0.349 GR
area over the GR curve (HCC1428): 0.189 GR
